Test results from US8247211B2, “Glycopeptide antibiotics” (American Cyanamid Company, priority 2001, dated 2012).
Values after ≈ are worked out from the molar mass of the structure shown. Numbered stars: 1 amine (or outer) side, 2 acyl side, 3 side chain; on linkers, the order of the positions; unused ones are H or OH. Square brackets hold non-standard residues; d marks the D form. Peptide text beside a SMILES is read from it. * marks the point of attachment. ξ: configuration not given here. X1 = N=C1NCC(C(O)C(N[*:1])C(=O)[*:2])N1C1OC(CO)C(O)C(O)C1O; ξEnduracididine(βξ-OH,4'ξ) = N=C1NCC(C(O)C(N)C(=O)O)N1; X2 = OCC1OC(OC2C(CO)OC(*)C(O)C2O)C(O)C(O)C1O; Cha = N[CH](CC1CCCCC1)C(=O)O

Key:
[1] = system: Enterococcus sp.; test: In vitro antibacterial evaluation: minimum inhibitory concentration (MIC), broth dilution method; type: cell-based
How it was run: (§1)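 Inoculum: 5×10^5 CFU/mL. Range: 64-0.06 μg/mL. Medium: Muller-Hinton II […]; NCCLS M7-A2 broth dilution. Endpoint: lowest concentration inhibiting growth. Strains include methicillin-, penicillin- and/or vancomycin-resistant clinical isolates.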

[2] = system: Escherichia coli; test: as above; type: cell-based
How it was run: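 Following NCCLS approved standard M7-A2, compounds are serially diluted from 64 to 0.06 μg/mL in Muller-Hinton II […] and inoculated at 5×10^5 CFU/mL; the MIC is the minimum concentration at which growth is inhibited.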

[3] = system: Staphylococcus sp.; test: as above; type: cell-based; details: 18 hours at 35° C.
How it was run: as §1

[4] = system: Streptococcus sp.; test: as above; type: cell-based; details: 18 hours at 35° C.
How it was run: as §1

[5] = system: Staphylococcus aureus-SMITH (GC 4543); test: Acute lethal infection in mice (ED50); type: in vivo; details: female CD-1 mice, intraperitoneal challenge, intravenous dose 30 min. after infection, 7 day survival ratios
How it was run: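 Female CD-1 mice challenged intraperitoneally with a bacterial dose lethal to untreated controls within 24-48 h. Compound given intravenously in saline or 5% dextrose 30 min post-infection, five mice per dose; ED50 from 7-day survival pooled over 3 tests.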

[6] = Anatomic pathology (heart and kidney histopathology) in mice; type: in vivo, CD-1 mice; details: 20 mg/kg intravenously daily for 9 days, microscopic histopathology on day 10
How it was run: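 Juvenile CD-1 mice (20 days old; 5 vehicle, 5 treated) received glycopeptide antibiotic 20 mg/kg i.v. daily for 9 days. Necropsied tissues formalin-fixed, paraffin-embedded, H&E stained and examined microscopically; findings graded slight to severe versus controls.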

[7] = system: Escherichia coli; test: In vitro antibacterial evaluation: minimum inhibitory concentration (MIC), broth dilution method; type: cell-based; remark: listed apart in the source
[8] = type: in vivo; details: mice, 20 mg/kg intravenously daily for 9 days, serum on day 10
Description: 20-day-old CD-1 mice were divided into a vehicle control group (5 mice) and a treatment group (5 mice). Samples of glycopeptide antibiotics were administered at 20 mg/kg intravenously daily for 9 days. Animals were necropsied on day 10 Sera were analyzed for BUN (blood urea nitrogen), creatinine, AST (aspartic aminotransferase), and ALT (alanine aminotransferase) by routine, standard, automated methods using an Hitachi 747 chemistry analyzer.

N=C1NCC(C(O)C2NC(=O)C(Cc3ccc(OC4OC(CO)C(OC5OC(CO)C(O)C(O)C5O)C(O)C4O)cc3)NC(=O)C(CC3CCCCC3)NC(=O)CNC(=O)C(CO)NC(=O)C(C(O)C3CNC(=N)N3C3OC(CO)C(O)C(O)C3O)NC2=O)N1 (stereo not drawn) [Example 263, Cyclo[3-cyclohexylalanyl-O-(4-O-hexopyranosylhexopyranosyl)tyrosyl-3-(2-iminoimidazolidin-4-yl)seryl-3-(3-hexopyranosyl-2-iminoimidazolidin-4-yl)serylserylglycyl]] (cyclo(G[Cha]Y(X2)[ξEnduracididine(βξ-OH,4'ξ)][X1]S); configuration not given here)
MIC Enterococcus avium (GC 4558) [1]: >64 µg/mL
MIC Enterococcus faecalis (ATCC 29212) [1]: >64 µg/mL
MIC Enterococcus faecalis (GC 2242) ([1]; Enterococcus faecalis (GC 2242), 18 hours at 35° C.): >64 µg/mL
MIC Enterococcus faecalis (GC 4552) ([1]; Enterococcus faecalis (GC 4552), 18 hours at 35° C.): >64 µg/mL
MIC Enterococcus faecalis (GC 4553) [1]: >64 µg/mL
MIC Enterococcus faecalis (GC 4554) [1]: >64 µg/mL
MIC Enterococcus faecium (GC 2243) [1]: >64 µg/mL
MIC Enterococcus faecium (GC 4556) [1]: >64 µg/mL
MIC Enterococcus faecium (GC 4557) [1]: 32 µg/mL (≈ 24.9 µM)
MIC Escherichia coli (GC 4559) [2]: >64 µg/mL
MIC Escherichia coli (GC 4560) [2]: 16 µg/mL (≈ 12.4 µM)
MIC Coagulase Negative Staphylococcus (GC 4547) [3]: 64 µg/mL (≈ 49.7 µM)
MIC Coagulase Negative Staphylococcus (GC 4547) ([3]; broth dilution): 64 µg/mL (≈ 49.7 µM)
MIC Coagulase Negative Staphylococcus (GC 4548) [3]: 32 µg/mL (≈ 24.9 µM)
MIC Coagulase Negative Staphylococcus (GC 4548) ([3]; broth dilution): 32 µg/mL (≈ 24.9 µM)
MIC Coagulase Negative Staphylococcus (GC 4549) [3]: 16 µg/mL (≈ 12.4 µM)
MIC Coagulase Negative Staphylococcus (GC 4549) ([3]; broth dilution): 16 µg/mL (≈ 12.4 µM)
MIC Coagulase Negative Staphylococcus (GC 4551) [3]: 64 µg/mL (≈ 49.7 µM)
MIC Coagulase Negative Staphylococcus (GC 4551) ([3]; broth dilution): 64 µg/mL (≈ 49.7 µM)
MIC Staphylococcus aureus (ATCC 29213) [3]: 64 µg/mL (≈ 49.7 µM)
MIC Staphylococcus aureus (ATCC 29213) ([3]; broth dilution): 64 µg/mL (≈ 49.7 µM)
MIC Staphylococcus aureus (GC 1131) [3]: 64 µg/mL (≈ 49.7 µM)
MIC Staphylococcus aureus (GC 1131) ([3]; broth dilution): 64 µg/mL (≈ 49.7 µM)
MIC Staphylococcus aureus (GC 4541) [3]: 64 µg/mL (≈ 49.7 µM)
MIC Staphylococcus aureus (GC 4541) ([3]; broth dilution): 64 µg/mL (≈ 49.7 µM)
MIC Staphylococcus aureus (GC 4542) [3]: 64 µg/mL (≈ 49.7 µM)
MIC Staphylococcus aureus (GC 4542) ([3]; broth dilution): 64 µg/mL (≈ 49.7 µM)
MIC Staphylococcus aureus (GC 4544) [3]: >64 µg/mL
MIC Staphylococcus aureus (GC 4544) ([3]; broth dilution): >64 µg/mL
MIC Staphylococcus aureus (GC 4545) [3]: 64 µg/mL (≈ 49.7 µM)
MIC Staphylococcus aureus (GC 4545) ([3]; broth dilution): 64 µg/mL (≈ 49.7 µM)
MIC Staphylococcus aureus-SMITH (GC 4543) [3]: 32 µg/mL (≈ 24.9 µM)
MIC Staphylococcus aureus-SMITH (GC 4543) ([3]; broth dilution): 32 µg/mL (≈ 24.9 µM)
MIC Staphylococcus haemolyticus (GC 4546) [3]: 32 µg/mL (≈ 24.9 µM)
MIC Staphylococcus haemolyticus (GC 4546) ([3]; broth dilution): 32 µg/mL (≈ 24.9 µM)
MIC Streptococcus agalactiae (GC 4564) ([4]; Streptococcus agalactiae (GC 4564)): 32 µg/mL (≈ 24.9 µM)
MIC Streptococcus pyogenes (ID-3187) ([4]; Streptococcus pyogenes (ID-3187)): 32 µg/mL (≈ 24.9 µM)
median effective dose (ED50), Staphylococcus aureus-SMITH (GC 4543) [5]: >8
Anatomical Pathology (Day 10), Heart [6]: +
Anatomical Pathology (Day 10), Kidney [6]: ++
MIC Escherichia coli (ATCC 25922) [7]: >64 µg/mL

CC(C)CC(=O)OC1C(OC2C(CO)OC(Oc3ccc(CC4NC(=O)C(C(C)c5ccccc5)NC(=O)CNC(=O)C(CO)NC(=O)C(CC5CNC(=N)N5C5OC(CO)C(O)C(O)C5O)NC(=O)C(CC5CNC(=N)N5)NC4=O)cc3)C(O)C2O)OC(CO)C(O)C1O (centres unmarked) [Example 277b]
MIC Enterococcus avium (GC 4558) [1]: >64 µg/mL
MIC Enterococcus faecalis (ATCC 29212) [1]: >64 µg/mL
MIC Enterococcus faecalis (GC 4553) [1]: >64 µg/mL
MIC Enterococcus faecalis (GC 4554) [1]: >64 µg/mL
MIC Enterococcus faecalis (GC 6189) ([1]; Enterococcus faecalis (GC 6189)): >64 µg/mL
MIC Enterococcus faecium (GC 2243) [1]: >64 µg/mL
MIC Enterococcus faecium (GC 4556) [1]: >64 µg/mL
MIC Enterococcus faecium (GC 4557) [1]: >64 µg/mL
MIC Escherichia coli (GC 4559) [2]: >64 µg/mL
MIC Escherichia coli (GC 4560) [2]: 32 µg/mL (≈ 23.7 µM)
MIC Coagulase Negative Staphylococcus (GC 4547) [3]: >64 µg/mL
MIC Coagulase Negative Staphylococcus (GC 4547) ([3]; broth dilution): >64 µg/mL
MIC Coagulase Negative Staphylococcus (GC 4548) [3]: >64 µg/mL
MIC Coagulase Negative Staphylococcus (GC 4548) ([3]; broth dilution): >64 µg/mL
MIC Coagulase Negative Staphylococcus (GC 4549) [3]: >64 µg/mL
MIC Coagulase Negative Staphylococcus (GC 4549) ([3]; broth dilution): >64 µg/mL
MIC Coagulase Negative Staphylococcus (GC 4551) [3]: >64 µg/mL
MIC Coagulase Negative Staphylococcus (GC 4551) ([3]; broth dilution): >64 µg/mL
MIC Coagulase Negative Staphylococcus (GC 6257) [3]: >64 µg/mL
MIC Coagulase Negative Staphylococcus (GC 6257) ([3]; broth dilution): >64 µg/mL
MIC Staphylococcus aureus (ATCC 29213) [3]: >64 µg/mL
MIC Staphylococcus aureus (ATCC 29213) ([3]; broth dilution): >64 µg/mL
MIC Staphylococcus aureus (GC 1131) [3]: >64 µg/mL
MIC Staphylococcus aureus (GC 1131) ([3]; broth dilution): >64 µg/mL
MIC Staphylococcus aureus (GC 3051) [3]: >64 µg/mL
MIC Staphylococcus aureus (GC 3051) ([3]; broth dilution): >64 µg/mL
MIC Staphylococcus aureus (GC 3053) [3]: >64 µg/mL
MIC Staphylococcus aureus (GC 3053) ([3]; broth dilution): >64 µg/mL
MIC Staphylococcus aureus (GC 4541) [3]: >64 µg/mL
MIC Staphylococcus aureus (GC 4541) ([3]; broth dilution): >64 µg/mL
MIC Staphylococcus aureus (GC 4542) [3]: >64 µg/mL
MIC Staphylococcus aureus (GC 4542) ([3]; broth dilution): >64 µg/mL
MIC Staphylococcus aureus (GC 4544) [3]: >64 µg/mL
MIC Staphylococcus aureus (GC 4544) ([3]; broth dilution): >64 µg/mL
MIC Staphylococcus aureus (GC 4545) [3]: >64 µg/mL
MIC Staphylococcus aureus (GC 4545) ([3]; broth dilution): >64 µg/mL
MIC Staphylococcus aureus-SMITH (GC 4543) [3]: >64 µg/mL
MIC Staphylococcus aureus-SMITH (GC 4543) ([3]; broth dilution): >64 µg/mL
MIC Staphylococcus haemolyticus (GC 4546) [3]: >64 µg/mL
MIC Staphylococcus haemolyticus (GC 4546) ([3]; broth dilution): >64 µg/mL
median effective dose (ED50), Staphylococcus aureus-SMITH (GC 4543) [5]: >8
Anatomical Pathology (Day 10), Heart [6]: 0
Anatomical Pathology (Day 10), Kidney [6]: +
MIC Escherichia coli (ATCC 25922) [7]: >64 µg/mL

CC(C)CC(=O)OCC1OC(OC2C(CO)OC(Oc3ccc(CC4NC(=O)C(C(C)c5ccccc5)NC(=O)CNC(=O)C(CO)NC(=O)C(CC5CNC(=N)N5C5OC(CO)C(O)C(O)C5O)NC(=O)C(CC5CNC(=N)N5)NC4=O)cc3)C(O)C2O)C(O)C(O)C1O (centres unmarked) [Example 277c]
Clinical Chemistry (Day 10) % of Control, AST [8]: +253%
